Common to all, as to format: in vivo, mice
The test system of one assay is PC3-DR tumors. As to the kind of experiment: MRMI with MT218, PC3-DR xenografts. Particulars: 0.04 mmol Gd/kg, 20 min post-injection, p=0.07. The source says: Xenograft models were established by subcutaneous flank injections in athymic nu/nu mice for the 4 prostate cancer cells and tested with MRMI using 0.04 mmol Gd/kg of MT218.
A further assay has as its system CAL27 tumors. Description: MRMI of OSCC flank xenografts, CAL27. Conditions: MT218 0.04 mmol/kg. On the procedure: Animal experiments were performed under an animal protocol approved by the Institutional Animal Care and Use Committee (IACUC) at Case Western Reserve University (CWRU, Cleveland, OH, USA). Female 4-week-old athymic nude mice purchased from the Jackson Laboratory (Bar Harbor, ME, USA) were housed in the Animal Core Facility at CWRU. Anesthetized mice were subcutaneously inoculated in the right flank with 4×10^6 GFP/luciferase-expressing OSCC cells (n=5 per cell line) in 100 μL of a 1:1 mixture of Matrigel HC (Corning) and DPBS. Tumor size was monitored with caliper measurements. After 4 weeks of growth, tumors were sufficiently large for MRI experiments.
MRI experiments were performed with a 3T MRS-3000 system (MR Solutions, Surrey, UK). Tumor-bearing mice were imaged before and at 10, 20, and 30 minutes post-injection of the targeted contrast agent, MT218 (Molecular Theranostics, LLC, Cleveland, OH, USA), at a dose of 0.04 mmol/kg using a T1-weighted fast spin-echo axial sequence with respiratory gating (TR=305 ms, TE=11 ms, FOV=40×40 mm, slice thickness=1 mm, number of slices=15, Nav=2, matrix=256×248). […]
Images were exported in DICOM format and analyzed using FIJI. Contrast-to-noise ratio (CNR) for each time point was calculated as the difference between the mean tumor intensity and the mean muscle intensity, divided by the standard deviation of noise.

In assay [1] the test system is BxPC3-GFP-Luc intrapancreatic tumors. Description: MRMI of BxPC3-GFP-Luc intrapancreatic tumors. On the procedure: For flank xenograft models, 4×10^6 Capan-1 cells suspended in 100 μL of a 6 mg/mL Matrigel (Corning, Corning, NY) solution was injected subcutaneously into the flank of eight-week-old female nu/nu mice. The tumor bearing mice were imaged after tumor volumes exceeded 300 mm^3. For orthotopic intrapancreatic models, the pancreas of four-week-old female nu/nu mice were surgically exposed and 1×10^6 BxPC3-GFP-Luc or PANC-1-GFP-Luc cells suspended in 100 μL of an Matrigel solution (6 mg/mL) was injected into the pancreatic tissue. Prior to imaging, growth of tumor was verified by bioluminescence imaging with intraperitoneal injection of d-luciferin on IVIS Spectrum system (Perkin Elmer, Waltham, MA).
Mice bearing intrapancreatic tumors were anesthetized and a tail vein catheter was inserted. Image acquisition was performed on a MR Solutions 3T MRS 3000 scanner with a mouse radiofrequency coil. Axial images were obtained using a Fast Spin Echo (FSE) MRI sequence (305 ms TR, 11 ms TE, 90° F.A, 4 cm×4 cm FOV, 1 mm slice thickness, 10 slices, echo train length=4, echo spacing=11 ms, 4 averages, 256×256 matrix, […] cm/pixel resolution) with respiratory gating. Images were acquired before contrast and at different time points after contrast injection at a dose of 0.1 mmol/kg (100 μL). For competitive binding experiments, a 5:1 molar ratio of free ZD2 peptide to MT218 was injected in mice bearing intrapancreatic BxPC3 tumor xenografts (n=3) at a dose of 0.1 mmol MT218/kg (100 μL). Images obtained on the MR Solutions 3T scanner were normalized using the Surscalereader.exe (MR Solutions, Guildford, UK) program supplied.
Image files were exported and analyzed in Horus software. ROIs were drawn in the tumor, liver, kidney, and muscle. Muscle ROIs were taken from muscle, with other structures (liver, kidney, tumor) identified after comparison with published images and comparison with anatomical landmarks or bioluminescent imaging. Size of ROIs drawn for image analysis are summarized in Supplemental Table S1. The contrast-to-noise ratio of the tumor (CNR) was calculated using the following equation, where σ_noise is the standard deviation of intensities from an ROI drawn outside of the mouse body:
Image contrast was reported as fold enhancement of contrast to noise ratio of postcontrast images over precontrast images using Fold Enhancement=CNRpost/CNRpre. Statistical analysis of CNR was performed in Minitab Express (Minitab Inc, State College, PA). One-way ANOVA with Fisher Individual Tests for Differences of Means post-hoc testing was performed to determine statistical significance between greater than two means (p<0.05). Student's T test was used to determine statistical significance between two means (p<0.05).

No end group written: not given here.

On to “ZD2-N3-Gd(HP-DO3A) (TVRTSAD; also: conjugated to Gd(HP-DO3A) by click reaction of alkynyl-ZD2 with N3-Gd(HP-DO3A), residue of attachment not given here, Gd complex) [MT218, EDB-FN-targeted MRI contrast agent; ZD2 peptide conjugated to the clinical macrocyclic agent Gd(HP-DO3A)]”, for which the “CNR over the pre-contrast” value in the assay on PC3-DR tumors was found to be 1.6 fold. Also, the “average maximum enhancement (CNR)” value in the assay with CAL27 tumors is recorded as 1.80±0.17. Moreover, the “tumor CNR increase” value in assay [1] (0.1 mmol/kg, 10 min post-injection) is 5.3 fold. In addition, in assay [1] (5:1 molar ratio of free ZD2 peptide to MT218, 0.1 mmol MT218/kg), the “CNR increase with co-injection of excess free ZD2 peptide” value was “approximately 2.5 fold”. Further, the “CNR compared to the clinical agent Gd(HP-DO3A)” value in assay [1] (BxPC3-GFP-Luc) is given as 212 % CNR of control. Also, the “CNR increase with MT218 without the free peptide” value in assay [1] (competitive binding experiment, 0.1 mmol/kg) is reported as “ca. 4.5 fold”.
